Measured values taken from patent US20230312643A1, “PEPTIDE DERIVATIVE WITH COLLAGENASE INHIBITORY ACTIVITY, AND USE THEREOF” (SUNMARINE BIOTECH, priority 2020, published 2023).

Legend:
[1] = HaCaT cytotoxicity test (MTS cell viability); assay type: cell-based; details: human, HaCaT cells (skin epidermal cells); for viability at 24 h, 1 µg/mL: 1 μg/ml; for viability at 24 h, 10 µg/mL: 10 μg/ml; for viability at 24 h, 50 µg/mL: 50 μg/ml; for viability at 24 h, 100 µg/mL: 100 μg/ml
Experimental: HaCaT cells, skin epidermal cells (derived from human), were used. The medium was DMEM low (SH30021.01, HyClone™, Logan, UT, USA) medium containing 10% fetal bovine serum (FBS, Lonza, Valais, Switzerland) medium. The cell lines were cultured in an incubator adjusted to 95% humidity, 5% CO2 and 37° C., and at this time, a medium antibiotic (Penicillin streptomycin, Gibco, Calif., USA) was used to suppress contamination or proliferation of microorganisms. When the cells covered the dish about 80%, the cells were washed with phosphated-buffered saline-EDTA (PBS-EDTA), and then the cells attached to the bottom of the dish were detached by treating with 1 ml of 0.05% trypsin EDTA, and subjected to subculture. The medium was exchanged every 48 hours to culture the cells.
Cell viability was measured using MTS (CellTiter 96® AQueous One Solution Cell Proliferation Assay, Promega, USA) reagent. The cells were divided at a concentration of 1×10^4 cells/well in a 96-well plate and then stabilized for 24 hours in an incubator controlled to 95% humidity, 5% CO2 and 37° C. After that, the samples were treated for each concentration (table 1) and cultured for 24 hours in an incubator controlled to 95% humidity, 5% CO2 and 37° C. After the medium was removed, 9 ml of medium (DMEM low, free FBS) was added to 1 ml of the reagent and diluted, and then 100 ul of the diluted solution was treated per well. After the reaction at 37° C. for 60 minutes, absorbance was measured at 490 nm with microplate reader (Molecular Devices, VersaMax ELISA Microplate Reader, USA). Cell viability was represented by absorbance of a sample-treated group compared to a control group not treated with the sample.

elastase = molecular target: T1, elastase (Sus scrofa, UniProt P00772); assay: Elastase inhibitory activity (EnzChek Elastase Assay Kit, DQ elastin); assay type: biochemical; details: for inhibition at 20 µg/mL: 0.02 mg/ml; for inhibition at 40 µg/mL: 0.04 mg/ml; for inhibition at 60 µg/mL: 0.06 mg/ml; for inhibition at 100 µg/mL: 0.1 mg/ml; for inhibition at 1000 µg/mL: 1 mg/ml
T1 construct: purchased Invitrogen
Experimental: Elastase inhibitory activity was performed by purchasing EnzChek® Elastase Assay Kit (600 Assays) reagent from Invitrogen. First, DQ elastin stock solution (1 mg/ml) was prepared by adding 1.0 ml of DDW to 1 mg DQ elastin vial. The 18 ml of DDW was added to 2 ml of 10× reaction buffer, so as to dilute reaction buffer. Then, an elastase enzyme reagent was prepared, and diluted with reaction buffer to a final concentration of 0.2 U/ml as working solution. Three samples of 50 ? each were prepared in a 96-well plate. The 50 ? of reaction buffer was added to 50 ? of DQ elastin and sample blank, and 50 ? of working solution was added to a sample, which were then left in a light-blocked state at room temperature for about one hour, and then fluorescence intensity was measured at excitation wavelength 505 nm and emission wavelength 515 nm using ELISA plate reader (VICTOR X3™, PerkinElmer, US).
Copper peptide (Comparative Example 12) and EGCg (Comparative Example 13), which is widely used as a raw material for functional cosmetics, were prepared at the same concentration and used as a positive control.
EGCg (epigallocatechin gallate) is a kind of polyphenol, which is an extract of green tea leaves, and is used as a cosmetic raw material for anti-oxidation, inflammation reduction, and wrinkle alleviation, and Copper peptide is used as a raw material for promoting wound healing, strengthening skin elasticity, and increasing subcutaneous fat layer to suppress skin aging due to excellent skin regeneration ability.

HS68 cells = assay: HS68 cytotoxicity test (MTS cell viability); assay type: cell-based; details: HS68, 50 μg/ml, 24 hours
Experimental: (§1) Skin fibroblast HS68 cells were used. The medium was DMEM high glucose (SH30243.01, HyClone™, Logan, UT, USA) medium containing 10% fetal bovine serum (FBS, Lonza, Valais, Switzerland) medium. The cell lines were cultured in an incubator adjusted to 95% humidity, 5% CO2 and 37° C., and at this time, a medium antibiotic (Penicillin streptomycin, Gibco, Calif., USA) was used to suppress contamination or proliferation of microorganisms.
(§2) Cell viability was measured using MTS (CellTiter 96® AQueous One Solution Cell Proliferation Assay, Promega, USA) reagent. The cells were divided at a concentration of 1×10^4 cells/well in a 96-well plate and then stabilized for 24 hours in an incubator controlled to 95% humidity, 5% CO2 and 37° C. After that, the samples were treated for each concentration and cultured for 24 hours in an incubator controlled to 95% j humidity, 5% CO2 and 37° C. After the medium was removed, 9 ml of medium (DMEM high, free FBS) was added to 1 ml of the reagent and diluted, and then 100 ul of the diluted solution was treated per well. After the reaction at 37° C. for 60 minutes, absorbance was measured at 490 nm with microplate reader (Molecular Devices, VersaMax ELISA Microplate Reader, USA). Cell viability was represented by absorbance of a sample-treated group compared to a control group not treated with the sample.

[2] = HS68 cytotoxicity test (MTS cell viability); assay type: cell-based; details: human, HS68 cells (skin fibroblasts); for viability at 24 h, 1 µg/mL: HS68, 1 μg/ml; for viability at 24 h, 10 µg/mL: HS68, 10 μg/ml; for viability at 24 h, 100 µg/mL: HS68, 100 μg/ml; for viability at 24 h, 50 µg/mL: HS68, 50 μg/ml
Experimental: as §1, §2

MMP1 protein (pdb1cgl) = molecular target: T2, MMP1 protein (pdb1cgl) (Homo sapiens, UniProt P03956); details: ligand binding to pdb; cited from earlier work
T2 sequence (P03956 101-269 limits assumed): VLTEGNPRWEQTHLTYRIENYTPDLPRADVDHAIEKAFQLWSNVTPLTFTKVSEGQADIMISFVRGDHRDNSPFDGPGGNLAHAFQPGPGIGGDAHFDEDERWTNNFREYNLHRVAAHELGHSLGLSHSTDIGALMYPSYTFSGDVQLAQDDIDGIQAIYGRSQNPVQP

gelatinase = assay: Gelatinase inhibitory activity (EnzChek Gelatinase/Collagenase Assay Kit, DQ gelatin); assay type: biochemical
Experimental: Gelatinase is an enzyme which plays a major role in promoting skin aging by more finely degrading collagen fragments digested by MMP-1 with MMP-2, and wrinkle reduction activity was determined by measuring the inhibitory activity of the enzyme.
(§3) Gelatinase inhibitory activity was performed by purchasing EnzChek® Gelatinase/Collagenase Assay Kit (250-2000 Assays) reagent from Invitrogen. First, DQ gelatin stock solution (1 mg/ml) was prepared by adding 1.0 ml of DDW to 1 mg DQ gelatin vial. The 18 ml of DDW was added to 2 ml of 10× reaction buffer, so as to dilute reaction buffer. Then, a gelatinase enzyme reagent was prepared, and diluted with reaction buffer to a final concentration of 0.2 U/ml as working solution. Three samples of 50 ? each were prepared in a 96-well plate. The 30 ? of reaction buffer was added to 20 ? of DQ gelatin and sample blank, and 30 ? of working solution was added to a sample, which were then left in a light-blocked state at room temperature for about one to two hours, and then fluorescence intensity was measured at excitation wavelength 485 nm and 535 nm using ELISA plate reader (VICTOR X3™, PerkinElmer, US).

collagenase = assay: Collagenase inhibitory activity (EnzChek Gelatinase/Collagenase Assay Kit, DQ collagen); assay type: biochemical
Experimental: as §3, with “Collagenase inhibitory activity” for “Gelatinase inhibitory activity”, “First, DQ collagen stock solution” for “First, DQ gelatin stock solution”, “mg DQ collagen vial. The” for “mg DQ gelatin vial. The”, “Then, a collagenase enzyme reagent” for “Then, a gelatinase enzyme reagent”, “of DQ collagen and sample” for “of DQ gelatin and sample”, “nm and emission wavelength 535 nm” for “nm and 535 nm”
As a positive control, copper peptide (Comparative Example 12), which is a representative peptide widely used as a raw material for functional cosmetics, was prepared at the same concentration and used. Copper peptide has excellent skin regeneration ability and thus is used as a raw material to suppress skin aging by promoting wound healing, strengthening skin elasticity, and increasing subcutaneous fat layers.

T1 sequence (P00772 27-266): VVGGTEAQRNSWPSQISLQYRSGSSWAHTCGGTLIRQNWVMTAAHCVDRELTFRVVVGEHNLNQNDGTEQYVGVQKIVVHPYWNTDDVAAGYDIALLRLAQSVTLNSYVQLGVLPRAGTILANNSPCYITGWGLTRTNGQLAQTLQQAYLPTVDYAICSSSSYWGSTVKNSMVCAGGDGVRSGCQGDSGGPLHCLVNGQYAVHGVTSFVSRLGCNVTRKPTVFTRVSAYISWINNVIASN

| inhibition at 20 µg/mL (elastase) | inhibition at 40 µg/mL (elastase) | inhibition at 60 µg/mL (elastase) | inhibition at 100 µg/mL (elastase) | Structure (SMILES) | viability at 24 h, 1 µg/mL [1] | viability at 24 h, 10 µg/mL [1] | viability at 24 h, 50 µg/mL [1] | viability at 24 h, 100 µg/mL [1] | inhibition at 1000 µg/mL (elastase) | viability at 24 h, 1 µg/mL [2] | viability at 24 h, 10 µg/mL [2] | viability at 24 h, 100 µg/mL [2] | viability at 24 h, 50 µg/mL [2] | also measured |
| --- | --- | --- | --- | --- | --- | --- | --- | --- | --- | --- | --- | --- | --- | --- |
| 5.2 ± 1.7% | 6.9 ± 1.8% | 9.9 ± 1.5% | 11.2 ± 1.1% | CN1CCC[C@H]1C(=O)NCC(=O)N[C@@H](CC(N)=O)C(=O)O [Me-PGN] | 125 ± 6.1% | 127 ± 6.5% | 122 ± 3.7% | 126 ± 14.8% | 11.2% | 103 ± 3.9% | 104 ± 4.5% | 104 ± 5.6% |  | Cell viability (HS68 cells): 103 ± 3.4% |
|  |  |  |  | COC(=O)NCC[C@@H](N[C@@H](CC(C)C)C(=O)N[C@@H](Cc1ccccc1)C(=O)NCCN1CCOCC1)C(=O)O [PDB 1CGL] |  |  |  |  |  |  |  |  |  | Ki (MMP1 protein (pdb1cgl)): 0.135 µM |
| 0.3 ± 0.9% | 1.2 ± 2.8% | 1.5 ± 2% | 5.2 ± 2.9% | CCCCCCCCCCCCCCCC(=O)N1CCC[C@H]1C(=O)NCC(=O)N[C@@H](CC(N)=O)C(=O)O [Pal-PGN] | 115 ± 10% | 112 ± 3.7% | 113 ± 7.7% | 108 ± 6.5% |  | 106 ± 2.9% | 111 ± 2.8% | 116 ± 3.3% | 105 ± 3.3% |  |

| Structure (SMILES) | inhibition at 20 µg/mL (elastase) | inhibition at 40 µg/mL (elastase) | inhibition at 60 µg/mL (elastase) | inhibition at 100 µg/mL (elastase) | viability at 24 h, 1 µg/mL [1] | viability at 24 h, 10 µg/mL [1] | viability at 24 h, 50 µg/mL [1] | viability at 24 h, 100 µg/mL [1] | inhibition at 1000 µg/mL (elastase) | viability at 24 h, 1 µg/mL [2] | viability at 24 h, 10 µg/mL [2] | viability at 24 h, 100 µg/mL [2] | viability at 24 h, 50 µg/mL [2] | also measured |
| --- | --- | --- | --- | --- | --- | --- | --- | --- | --- | --- | --- | --- | --- | --- |
| CCCOC(=O)[C@H](CC(N)=O)NC(=O)CNC(=O)[C@@H]1CCCN1 [PGN-OPr, PGN(Pro-Gly-Asn)-OPr] | 17.3 ± 1.1% | 27.5 ± 2.5% | 34.2 ± 0.5% | 77.6 ± 2.8% | 117 ± 9.6% | 126 ± 14.1% | 130 ± 13.3% | 128 ± 5.3% | 77.6% | 107 ± 2.4% | 107 ± 8.9% | 116 ± 3.6% | 115 ± 6.9% | Gelatinase inhibitory activity (gelatinase; 0.2 mg/ml): 16.9 ± 2.7%; Gelatinase inhibitory activity (gelatinase; 0.3 mg/ml): 54.2 ± 6.3%; Gelatinase inhibitory activity (gelatinase; 0.4 mg/ml): 96.4 ± 1.8%; Gelatinase inhibitory activity (gelatinase; 0.5 mg/ml): 98.9%; gelatinase inhibitory activity, times higher than that of Copper peptide (gelatinase; 0.5 mg/ml): ~15 times; gelatinase inhibitory activity, times higher than that of EGCg (gelatinase; 0.5 mg/ml): about 1.3 times; IC50 (elastase; FIGS. 8 and 9): 216 µM; Collagenase inhibitory activity (collagenase; 0.05 mg/ml): 5.7 ± 3.1%; Collagenase inhibitory activity (collagenase; 0.1 mg/ml): 14.3 ± 5.2%; Collagenase inhibitory activity (collagenase; 0.5 mg/ml): 67.1 ± 0.8%; Collagenase inhibitory activity (collagenase; 1 mg/ml): 98.7%; collagenase inhibitory activity IC50 (collagenase; FIGS. 5 and 6): 508 µg/mL |
